The term IC50 denotes the concentration that gives 50% inhibition.

The source made the active and inactive calls.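 How the source made its calls: active means maximal inhibition of USP17 at or above 30% in the confirmation dose-response, a value not among the printed readouts; inactive means the rest.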

The target of the experiment is Ubiquitin carboxyl-terminal hydrolase 17-like protein 5 (Homo sapiens) (UniProt A8MUK1). As to the kind of experiment: ubiquitin-specific protease 17 inhibitors, concentration series, biochemical, verification of primary actives (AID 1645864). As to conditions: purified USP17, ubiquitin-rhodamine cleavage fluorescence, 3 h.
Ubiquitin carboxyl-terminal hydrolase 17-like protein 5 (Homo sapiens), sequence (A8MUK1 whole entry, looked up): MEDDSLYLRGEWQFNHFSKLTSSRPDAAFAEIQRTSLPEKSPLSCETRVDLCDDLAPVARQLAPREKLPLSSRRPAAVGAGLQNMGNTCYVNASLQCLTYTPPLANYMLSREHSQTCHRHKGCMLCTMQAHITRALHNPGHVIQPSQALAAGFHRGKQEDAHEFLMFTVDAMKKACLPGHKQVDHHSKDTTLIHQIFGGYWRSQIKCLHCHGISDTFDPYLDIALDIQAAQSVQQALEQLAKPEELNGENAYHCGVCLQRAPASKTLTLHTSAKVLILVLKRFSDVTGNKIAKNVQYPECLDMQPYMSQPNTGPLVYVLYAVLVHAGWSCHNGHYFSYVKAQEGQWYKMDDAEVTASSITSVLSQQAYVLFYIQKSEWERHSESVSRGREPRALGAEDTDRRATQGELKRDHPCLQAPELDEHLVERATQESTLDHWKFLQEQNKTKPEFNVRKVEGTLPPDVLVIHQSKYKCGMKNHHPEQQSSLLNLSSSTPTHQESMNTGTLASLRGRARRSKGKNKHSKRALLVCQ
In the case of `Cc1nc(Nc2c3ccccc3nc3ccccc23)sc1C`, the IC50 is > 50 µM (inactive). Turning to `CNC(=O)c1cc2nc(N(C)C)n(-c3ccc(F)cc3)c2s1`, the IC50 is > 50 µM (inactive). With `Cc1cc(C(=O)N2CC(C(=O)Nc3cc(C(F)(F)F)ccc3Cl)C2)no1`, the IC50 was 38.4 µM. Take `CC1CCc2c(sc3nc(CC#N)[nH]c(=O)c23)C1` (stereo not drawn): the IC50 is > 50 µM (inactive).

Regarding `COc1ccccc1-c1nc(-c2nnn(Cc3ccc(C)cc3)c2C)no1`, the IC50 is > 50 µM (inactive). In the case of `Cc1ccc(C(=O)Nc2cc3c4c(c2)CC(=O)N4CCC3)cc1` it was > 50 µM (inactive); in that of `O=C(c1ccc2occc2c1)N1CCC(S(=O)(=O)c2ccc(-c3ccco3)cc2)CC1`, > 50 µM (inactive).

Consider `O=C(CSc1nnnn1-c1ccccc1)Nc1ccccc1`, for which the IC50 is 36.8 µM. On to `O=C(Nc1ccc2sccc2c1)c1ccc(F)cc1`, for which the IC50 is 40.6 µM.

Regarding `CCOC(=O)N1CCN(S(=O)(=O)c2ccc(C(=O)Nc3ccc(Br)cc3)cc2)CC1`, the IC50 is 1.78 µM. Take `Cc1cc(/C=C2/C(=N)N3C(c4ccccc4)=CSC3=NC2=O)c(C)n1-c1ccc2ccccc2c1`: the IC50 is > 50 µM (inactive).

In the case of `O=C(Nc1ccc(F)cc1F)NC1Cc2ccccc2C1`, the IC50 is 28.2 µM. Regarding `O=C(/C=C/c1ccc(F)cc1)N1CCc2ccccc2C1`, the concentration for half-maximal inhibition (IC50) was 37.3 µM.

Turning to `Cc1nn(CC(=O)Nc2ccc(Br)c3cccnc23)c(=O)c2ccccc12`, the IC50 was 12.7 µM. Turning to `CC(C)Cc1cc(-c2nnc3sc(-c4ccco4)nn23)n[nH]1`, the IC50 is > 50 µM (inactive). As to `O=C(NCc1ccc2c(c1)OCO2)c1cc2c(s1)-c1ccccc1OC2`, the IC50 was 3.99 µM.

Regarding `COc1cccc2c1OCC(C(=O)NCc1ccc(F)cc1)=C2`, the IC50 was > 50 µM (inactive). For `COc1cc(COc2ccc3c(C)c(CC(=O)N4CC[C@@]5(O)CCCC[C@H]5C4)c(=O)oc3c2C)cc(OC)c1OC`, the IC50 is 38.9 µM. On to `CCCC1Cc2c(sc3nc(SCC)nc(N)c23)CO1` (stereo not drawn), for which the IC50 was 7.76 µM. On to `CCN1C(SCc2ccc(F)cc2)=NS(=O)(=O)c2ccccc21`, for which the IC50 is > 50 µM (inactive). With `CCc1ccccc1NC(=O)c1cc(-c2ccccn2)n[nH]1`, the IC50 is 31 µM.

For `Cc1c(C)n(-c2ccccc2)c2ncn(CC(=O)NC(C)c3ccccc3)c(=O)c12` (stereo not drawn), the IC50 is 22.5 µM.

Regarding `C=Cc1ccc(Cn2cc(S(=O)(=O)N3CCOCC3)ccc2=O)cc1`, the IC50 is 40.6 µM.

In the case of `COc1c2nc3ccccc3oc-2cc(=O)c1OC`, the IC50 was 23.7 µM. Consider `COc1ccc(-c2cc(C(=O)N3CCN(c4ccc([N+](=O)[O-])cc4)CC3)[nH]n2)cc1`, for which the IC50 is > 50 µM (inactive). `Cc1cc(N2CCOCC2)nc2ccc(NC(=O)CCC(=O)Nc3ccc(F)cc3)cc12`: the IC50 was 24.2 µM. Regarding `Cc1ccc(C)c(NS(=O)(=O)c2cc(-c3cnc(C4CC4)o3)ccc2C)c1`, the IC50 was 42.7 µM. In the case of `CCc1noc(-c2ccc(OCC(=O)Nc3ccc(C)cc3C)cc2)n1` it was 30.5 µM. In the case of `CCCC(O)CCCCCCCc1cc(O)cc(O)c1C(=O)OC(CCC)CCCCCCCc1cc(O)cc(O)c1` (stereo not drawn), the IC50 is 28.6 µM.

For `Cc1ccc(Cn2cc(-c3noc(-c4ccncc4)n3)nn2)cc1`, the IC50 was 28.6 µM.

For `O=C1C=C(O)c2c(O)cccc2C1=O`, the 50% inhibitory concentration (IC50) was 11.9 µM. In the case of `COc1ccc(-n2ccn3c(CCC(=O)NCc4ccc(F)cc4)nnc3c2=O)cc1`, the IC50 is 33 µM. As to `N#Cc1ccc(NC(=O)COC(=O)c2ccc3ccccc3n2)cc1`, the IC50 is > 50 µM (inactive). With `c1ccc2c(-c3nc(C4CC4)no3)nnc(NCc3ccncc3)c2c1`, the IC50 is 38.7 µM.

As to `COc1ccc(CCNC(=O)c2cc(C3CC3)nc3c2cnn3C(C)C)cc1`, the IC50 is > 50 µM (inactive).

In the case of `Cc1cnnn1-c1ccc(C(=O)Nc2cc(Cl)ccc2Cl)cc1`, the IC50 is 29.2 µM. Consider `Cc1nc(CN2CCn3c(Cn4cccn4)cnc3C2C)cs1` (stereo not drawn), for which the IC50 was > 50 µM (inactive).

With `O=C(Nc1ccc(F)cc1F)c1csc(-c2ccccc2)n1`, the IC50 is 39.2 µM. `O=C(Cn1c(=O)n(-c2ccccc2)c(=O)c2ccc(C(=O)NCc3ccc4c(c3)OCO4)cc21)NCCC1=CCCCC1`: the IC50 was 16.9 µM.

For the compound `COc1cccc(C(=O)Oc2ccc3c(=O)c(-c4ccc(OC)c(OC)c4)coc3c2)c1`, the IC50 was 0.167 µM.

Consider `CC(C)N1CC2CN(C(=O)c3ccccc3)CCN2Cc2ccccc21` (stereo not drawn), for which the IC50 was > 50 µM (inactive). With `O=C(NCC1CC1)C1CCCN(c2ccc(-c3ccccc3)nn2)C1` (stereo not drawn), the IC50 was > 50 µM (inactive). In the case of `O=C(NCc1ccc(-c2nc3cnccc3o2)cc1)c1ccccc1Br` it was 38.6 µM; in that of `O=[N+]([O-])c1ccc(NCC2COc3ccccc3O2)c(Cl)c1` (stereo not drawn), > 50 µM (inactive); in that of `COc1ccc(Cl)cc1NC(=O)Cn1c(=O)cc(C)c2c(C)nn(-c3ccccc3)c21`, 5.81 µM.

With `Cc1ccc(CSC2=NS(=O)(=O)c3ccccc3N2)cc1`, the IC50 was > 50 µM (inactive). As for `Cc1c(CC(=O)N2CCN(c3ncccn3)CC2)c(=O)oc2cc(O)ccc12`, the IC50 was 24.7 µM. On to `O=C(Cc1cccs1)Nc1cc(F)c2nc(N3CCOCC3)ccc2c1`, for which the IC50 is 31.2 µM. Regarding `CSc1ccccc1C(=O)Nc1sc2c(c1C(N)=O)CCC(C)C2` (stereo not drawn), the IC50 was 2.35 µM.

Take `COc1cccc(N2C(=O)N(CC(=O)NCc3ccc(Cl)cc3)c3ccccc3S2(=O)=O)c1`: the IC50 is 19.1 µM. Turning to `Cc1cccc(OCCn2c(CCNC(=O)C3CCCCC3)nc3ccccc32)c1`, the IC50 was 28.6 µM. For the compound `Fc1cccc(-n2cc(-c3noc(-c4ccc[nH]4)n3)nn2)c1`, the IC50 was 36.4 µM. For the compound `CN(C)c1cccc(C(=O)Nc2cc(-c3cccnc3)no2)c1`, the IC50 is 26.9 µM.

As to `COc1ccc(CCn2cnc3c4ccccc4n(C)c3c2=O)cc1OC`, the IC50 was > 50 µM (inactive). As to `O=S(=O)(c1cccc(F)c1)N1CCN(c2nnnn2-c2ccccc2)CC1`, the IC50 was 40.3 µM. In the case of `Cn1ncc2c(=O)n(Cc3cccc(Cl)c3)cnc21` it was > 50 µM (inactive). As to `Cc1ccc(C(=O)Nc2nc3n(n2)C(c2ccccc2)CC(=O)N3)cc1` (stereo not drawn), the IC50 is 27.9 µM.

In the case of `O=C(COc1cccc2c1CCN(Cc1cccnc1)C2=O)Nc1ccc2c(c1)OCCO2`, the IC50 was 35.2 µM.

On to `CSc1ncc(C(=O)NC(C)c2ccccc2)c(-c2ccccc2)n1` (stereo not drawn), for which the IC50 was 20.5 µM. Turning to `CC(C)C(=O)Nc1ccc(N2CCN(Cc3ccc(F)cc3)C2=O)nc1`, the IC50 is 26.4 µM. In the case of `O=C(NC1(O)C(=O)c2ccccc2C1=O)c1ccc(-c2csnn2)cc1`, the IC50 was 19.5 µM.

As to `O=C(Nc1cccc2ccccc12)N1CCC(c2nc3c(nnn3Cc3ccc(F)cc3)c(=O)[nH]2)CC1`, the IC50 is 28.6 µM. Turning to `Cc1cc(N2CCN(c3ncccn3)CC2)nc2ccc(NC(=O)/C=C/c3ccccc3Cl)cc12`, the IC50 is 12.6 µM. In the case of `CN1C(=O)[C@]23CC4=CC=C[C@H](O)[C@H]4N2C(=O)[C@@]1(CO)SS3`, the IC50 is > 50 µM (inactive). In the case of `Cc1c(S(=O)(=O)NC2CCCCNC2=O)sc2ccc(Cl)cc12` (stereo not drawn), the IC50 is 43.1 µM. As for `O=C(Nc1ccc(-c2nnc3n2CCCCC3)cc1)c1ccc2c(c1)OCO2`, the figure is > 50 µM (inactive). In the case of `COc1cccc(NC(=O)Nc2ccc(CCc3nc4ccccc4[nH]3)cc2)c1` it was 49.2 µM; in that of `O=C(CN1CCCCC1)Nc1nnc(-c2ccc([N+](=O)[O-])cc2)s1`, 19.9 µM; in that of `Cc1sc2ncnc(OCc3ccc(F)cc3Cl)c2c1C`, > 50 µM (inactive). With `Cc1nc(-c2ccccn2)sc1C(=O)Nc1ccc(C#N)cc1`, the IC50 was > 50 µM (inactive). For the compound `O=C(Cn1c(CSc2ccccc2)nc2ccccc21)Nc1ccccc1F`, the IC50 was 39.6 µM. On to `Cc1ccccc1-c1nnc(-c2ccc(C(=O)NCc3ccccc3F)cc2)o1`, for which the IC50 was 5.8 µM.

With `O=C(NCc1ccc(F)cc1)c1cc(-n2cnnn2)ccc1Cl`, the IC50 is 25.4 µM. As for `Cc1ccc(-n2cc(C(=O)NCc3cccnc3)nn2)cc1C`, the figure is 22.3 µM; as for `COc1ccc(C)cc1NC(=O)Cc1csc(NC(=O)c2ccc(=O)[nH]c2)n1`, 40.5 µM; as for `Cc1nc2c3ccccc3nc(NCc3ccc4c(c3)OCO4)n2n1`, 33.8 µM. Consider `CCc1ccc(NC(=O)Cc2nnc3cc(-c4nc(C)no4)ccn23)cc1`, for which the IC50 is 20.2 µM.

On to `O=C(Cc1cc(-c2ccc(F)cc2)on1)NCc1ccccc1`, for which the IC50 was 15.9 µM. Regarding `COc1cccc(N2CCN(C(=O)Nc3ccc4c(c3)NC(=O)CO4)CC2)c1`, the IC50 was 26.6 µM. Take `O=C(Nc1ccccc1)c1nc(-c2cn(Cc3ccc(F)cc3)nn2)no1`: the IC50 was 42.4 µM. As for `Cc1nc(SCC(=O)Nc2cc(Cl)ccc2C)c2oc3ccccc3c2n1`, the IC50 was 1.67 µM. As for `CNC(=O)c1c2n(c3ncccc13)CCN(S(=O)(=O)c1ccc(-c3ccccc3)cc1)C2`, the figure is 15 µM. Turning to `CCOC(=O)c1ccc(-n2c(=O)c(C#N)cc3c(=O)n4ccccc4nc32)cc1`, the IC50 was > 50 µM (inactive).

Take `O=C(c1cc(-c2ccc(Cl)cc2)n[nH]1)N1CCN(C(=O)c2ccco2)CC1`: the IC50 was 32.2 µM. `Fc1cccc(Cn2cc(-c3noc(-c4cccnc4)n3)nn2)c1`: the IC50 is 38.3 µM.

For the compound `O=C(CSc1ccc(-c2cccc([N+](=O)[O-])c2)nn1)Nc1cccc(F)c1`, the IC50 is 2.7 µM. As to `Cc1cc(C)c(O)c(-c2cc(C(=O)Nc3ccccc3Cl)[nH]n2)c1`, the IC50 is 1.75 µM. Turning to `CC(=O)N1CCc2cc(S(=O)(=O)NC(Cc3ccccc3)C(=O)Nc3cccc(Cl)c3C)ccc21` (stereo not drawn), the IC50 is 12.9 µM. As for `N#Cc1ccc(NC(=O)c2ccc(S(=O)(=O)N3CCCCC3)cc2)cc1`, the figure is 11.6 µM; as for `Cc1ccccc1NC(=O)c1cc(S(=O)(=O)N2CCCCCC2)ccc1Cl`, 35.2 µM; as for `O=C(Nc1ccc2ccccc2n1)c1ccc(Cl)cc1`, 2.19 µM. In the case of `COC(=O)c1ccc2c(=O)n(CCCCCC(=O)NCc3cccc(Cl)c3)c(=O)[nH]c2c1` it was 2.36 µM; in that of `CCCN1CCN(C(=O)c2cc(NC(=O)C3CCC3)cc3nc(C)ccc23)CC1`, > 50 µM (inactive).

These data come from PubChem BioAssay AID1645864 (Buhrlage Lab, Dana-Farber Cancer Institute and Novartis …, 2021).
